What was measured:
[1] = test system: hippocampus of SAMP8 mice; test: Hippocampal protein levels by western blot in SAMP8 mice; format: in vivo, mouse; conditions: 2 mg kg^–1 day^–1 oral, 4 weeks, vs control
Excerpt: In Vivo Proof-of-Concept of the Dual sEH / AChE Inhibitor […] in SAMP8 Mice Animals and treatment. The senescence-accelerated mouse-prone 8 (SAMP8) is an accelerated aging model established through phenotypic selection from AKR/J mice by […]
abnormal APP and β-amyloid processing and tau pathology, among others. Likewise, SAMP8 […]
and oxidative stress markers are present at early ages and during adultness.15 In this work, 5-month-old male SAMP8 mice were used to perform behavioral and molecular analyses.
Animals were randomly divided into SAMP8 control (n=8) and SAMP8 treated with 12c […]
(n=8, 2 mg kg‒1 day‒1). The animals had free access to food and water and were kept under standard temperature conditions (22 ± 2 °C) and 12-h/12-h light/dark cycles (300 lux/0 lux).
Compound 12c was dissolved in 1.8% (2-hydroxypropyl)-β-cyclodextrin (Sigma-Aldrich, St.
Louis, MO) and administered through drinking water for 4 weeks (Figure S6 of the Supporting Information). Control groups received water plus 1.8% (2-hydroxypropyl)-β-cyclodextrin during the treatment period. After 4 weeks of treatment, behavioral and cognitive tests were performed to study the effects of treatment on working memory. Drug administration was continued until euthanasia by cervical dislocation, three days after the cognitive tests were completed. The brains were immediately removed from the skulls and the hippocampi were dissected, frozen and maintained at ‒80 °C.
Weight and water consumption were controlled each week, and compound concentration was adjusted accordingly to reach the optimal dose. Mice were treated according to European Community Council Directive 86/609/EEC and were approved by the Institutional Animal Care and Use Committee of the University of Barcelona (670/14/8102) and by Generalitat de Catalunya, Spain (10291). All studies and procedures for the behavioral tests, brain dissection and extractions followed the ARRIVE. Every effort was made to minimize animal suffering and to reduce the number of animals. […]
Exploration was defined as sniffing or touching the objects with the nose and/or forepaws.
The discrimination index (DI) was calculated as (TN‒TO)/(TN+TO). To avoid object preference biases, objects were alternated. 70% EtOH was used to clean the arms and objects after each trial for the elimination of olfactory cues.
Molecular analyses. Immunodetection experiments by western blot. The hippocampal tissue from each animal was homogenized in lysis buffer (Tris HCl pH 7.4 mM, NaCl 150 mM, EDTA 5 mM and 1X-Triton X-100) containing phosphatase and protease inhibitors (Cocktail II, Sigma-Aldrich, St. Louis, MO, USA) to obtain total protein homogenates. The Bradford technique was used to determine total protein concentration. Aliquots of 15 μg of total hippocampal protein were used and separated by sodium dodecyl sulfate-polyacrylamide gel […] (SDS-PAGE) (8‒20%) and transferred into polyvinylidene difluoride (PVDF) membranes (Merck-Millipore, Burlington, MA, USA) for 2 h. The membranes were blocked in 5% non-fat milk in TRIS-buffered saline (TBS) containing 0.1% Tween 20 (TBS-T, Sigma-Aldrich, St. Louis, MO, USA) for 1 h at room temperature, and then, overnight […]
membranes were washed with TBS-T 3 times for 5 min and incubated with secondary antibodies for 1 h at room temperature. Immunoreactive protein was viewed with a Chemiluminescence-based detection kit, following the manufacturer’s protocol (ECL Kit; Merck-Millipore), and digital images were acquired using a ChemiDoc XRS+ System (BioRad lab, Hercules, CA, USA). Semi-quantitative analyses were done using ImageLab Software (BioRad Lab), and results were expressed in Arbitrary Units (AU) considering control protein levels as 100%. Protein loading was routinely monitored by immunodetection of glyceraldehyde-3-phosphate dehydrogenase (GADPH).

recombinant mouse AChE = target: T1, recombinant mouse AChE (Mus musculus, UniProt P21836); test: Mouse acetylcholinesterase inhibition, Ellman's method; format: biochemical
T1 construct: purchased Bio-Techne, Milan, Italy
T1 sequence (P21836 32-614): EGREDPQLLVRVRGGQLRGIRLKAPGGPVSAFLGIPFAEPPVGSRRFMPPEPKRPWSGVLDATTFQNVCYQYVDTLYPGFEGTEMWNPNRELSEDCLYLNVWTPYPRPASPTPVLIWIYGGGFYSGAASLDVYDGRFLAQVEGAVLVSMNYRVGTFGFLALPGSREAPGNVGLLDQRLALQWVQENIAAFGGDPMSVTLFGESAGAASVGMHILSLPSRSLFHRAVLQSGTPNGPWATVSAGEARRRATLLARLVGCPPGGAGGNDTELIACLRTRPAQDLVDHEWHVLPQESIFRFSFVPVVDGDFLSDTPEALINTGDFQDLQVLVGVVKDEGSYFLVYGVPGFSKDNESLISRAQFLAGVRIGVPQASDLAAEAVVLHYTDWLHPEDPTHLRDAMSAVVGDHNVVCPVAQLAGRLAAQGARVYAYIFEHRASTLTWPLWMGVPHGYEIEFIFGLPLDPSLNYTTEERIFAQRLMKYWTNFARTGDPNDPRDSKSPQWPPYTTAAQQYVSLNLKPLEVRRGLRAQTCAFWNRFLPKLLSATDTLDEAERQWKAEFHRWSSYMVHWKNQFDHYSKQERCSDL
Method: Human and mouse acetylcholinesterase and human butyrylcholinesterase inhibition
assay. The inhibitory activity of the target compounds toward recombinant human AChE
(Sigma-Aldrich, Milan, Italy), recombinant mouse AChE (Bio-Techne, Milan, Italy) and
human serum BChE (Sigma-Aldrich, Milan, Italy) was assessed by Ellman’s method,8 using
Stock solutions of the AChEs were prepared by
dissolving enzyme lyophilized powder (hAChE) or diluting the enzyme commercial solution
(mAChE) in 0.1 M potassium phosphate (pH 8.0) containing 0.1% Triton X-100, whereas the
stock solution of hBChE was prepared in 0.1% aq. gelatin and the stock solutions of the
compounds to be tested were made in MeOH (2-4 mM). The assay solution consisted of 0.02
unit mL‒1 of the enzyme, 340 M 5,5’-dithiobis(2-nitrobenzoic acid), and 550 M of the
substrate acetylthiocholine iodide (for AChE assay) or butyrylthiocholine iodide (for BChE
assay) in 0.1 M potassium phosphate (pH 8.0). Blank solutions containing all components
except the enzymes were prepared to account for the non-enzymatic hydrolysis of the
Prior the addition of the substrate, the assay solutions were incubated at 37 °C for 20 min.
After the addition of the substrate, cuvettes were rapidly transferred into a Jasco V-530
double beam spectrophotometer equipped with thermostated cuvette holders (37 °C), in order
for 240 s. For each tested compound, five increasing concentrations were assayed in order to
achieve inhibition percentages of 20‒80%. Each concentration was assayed in triplicate. IC50
values were calculated from the inhibition plot (% inhibition vs log[inhibitor]) and are
expressed as mean ± SEM. Each IC50 value is the average of at least two experiments, each

[2] = PAMPA-BBB assay for brain permeability
Method: PAMPA-BBB assay for brain permeability. The brain permeability (Pe) of the target
compounds was assessed by an in vitro parallel artificial membrane permeability assay for
blood‒brain barrier penetration (PAMPA-BBB assay),12 which uses a lipid extract of porcine
brain membrane as a BBB model. The assay was validated by comparing experimental and
reported Pe values of a set of fourteen commercial drugs (Table S2 of the Supporting
On the basis of this equation and the limits established by Di et al. for BBB
independent experiments, each performed in triplicate, were carried out for each compound.

[3] = Microsomal stability, human liver microsomes; format: in vitro ADME
Method: Microsomal stability screen. The microsomal stability of the target compounds was
determined at the Innopharma Drug Screening and Pharmacogenomics Platform (Santiago de
Compostela, Spain). The human, rat and mice pooled microsomes, with a protein content of 20 mg mL‒1, were purchased from Tebu-Xenotech. The compounds were incubated in a 96-well microplate at 37 °C with the microsomes in 50 mM phosphate buffer (pH = 7.4) containing as cofactors 30 mM MgCl2, 10 mM NADP, 100 mM glucose-6-phosphate and 40
Samples (75 µL) were taken from each well at 0, 10, 20, 40 and 60 min and transferred to a microplate. 4 °C Acetonitrile (75 µL) and internal standard (rolipram) were then added for inactivating the microsomes, and water with 0.5% formic acid (30 µL) was subsequently added for improving the chromatographic conditions, keeping the mixtures at 4 °C. The plate was centrifuged at 46,000 g for 30 min at 15 °C and supernatants were taken and analyzed in a UPLC-MS/MS system (UPLC QSM Waters Acquity) using reverse phase Acquity UPLC® HSST3 1.7 μm (2.1 mm × 50 mm, Waters) as the stationary phase, 0.1% formic acid in water (A) / 0.1% formic acid in acetonitrile (B) as the mobile phase, a flow of 0.8 mL min‒1, and the
The metabolic stability of the compounds was calculated from the logarithm of the remaining compound at each of the time points studied.

recombinant human sEH = target: T2, recombinant human sEH (Homo sapiens, UniProt P34913); test: Human soluble epoxide hydrolase inhibition, fluorescence-based assay (CMNPC substrate); format: biochemical; conditions: recombinant human sEH; average of three replicates; read-out: hsEH IC50
T2 sequence (P34913 1-555): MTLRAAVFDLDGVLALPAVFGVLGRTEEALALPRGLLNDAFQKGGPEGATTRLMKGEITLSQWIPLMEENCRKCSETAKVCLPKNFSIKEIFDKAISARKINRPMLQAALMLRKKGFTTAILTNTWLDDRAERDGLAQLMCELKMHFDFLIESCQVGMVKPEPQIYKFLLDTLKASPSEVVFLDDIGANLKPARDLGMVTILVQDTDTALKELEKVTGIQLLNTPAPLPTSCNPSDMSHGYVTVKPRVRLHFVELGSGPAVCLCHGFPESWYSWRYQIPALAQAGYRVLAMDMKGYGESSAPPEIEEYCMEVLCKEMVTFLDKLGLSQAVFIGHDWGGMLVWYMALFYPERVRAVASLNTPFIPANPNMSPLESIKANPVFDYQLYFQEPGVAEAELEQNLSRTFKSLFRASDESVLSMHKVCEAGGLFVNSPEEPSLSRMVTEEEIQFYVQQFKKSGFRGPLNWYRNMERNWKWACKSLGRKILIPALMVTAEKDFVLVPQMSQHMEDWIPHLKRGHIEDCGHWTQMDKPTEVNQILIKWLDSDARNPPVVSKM
Method: Human and mouse soluble epoxide hydrolase inhibition assay. The inhibitory activity of
the target compounds toward human and mouse sEH was determined by a fluorescence-based
assay, using purified recombinant human or mouse sEH proteins and CMNPC as a fluorescent
substrate.6 The enzymes were incubated at 30 °C with the inhibitors ([I]final = 0.4-100,000
nM) for 5 min in 100 mM sodium phosphate buffer (200 µL, pH 7.4) containing 0.1 mg mL‒1
of BSA and 1% of DMSO. The substrate (CMNPC) was then added ([S]final = 5 µM). Activity
was assessed by measuring the appearance of the fluorescent 6-methoxynaphthaldehyde
(Molecular Devices). Results were obtained by regression analysis from a linear region of the
curve and are given as IC50 values, i.e., the concentration of the compound that reduces the
sEH activity by 50%. All measurements were performed in triplicate and the mean is

O=C(Nc1ccc(OC(F)(F)F)cc1)NC1CCN(C(=O)CCCCNc2c3c(nc4cc(Cl)ccc24)CCCC3)CC1 [12c, 1-{1-{5-[(6-Chloro-1,2,3,4-tetrahydroacridin-9-yl)amino]pentanoyl}piperidin-4-yl}-3-[4-(trifluoromethoxy)phenyl]urea]
hippocampal levels of synaptophysin (SYN) [1]: significantly increased | hippocampal protein levels of NFkβ [1]: reduced in mice treated with 12c relative to untreated mice but without reaching statistical significance | hippocampal protein levels of sAPPα [1]: significant increase | hippocampal protein levels of sAPPβ [1]: tendency toward reduced levels | tau phosphorylation at Ser396 [1]: significant site-specific reduction | tau phosphorylation at Ser404 [1]: slightly decreased phosphorylation | mAChE potency relative to 6-chlorotacrine (recombinant mouse AChE): 5 fold | potency toward mAChE relative to hAChE (recombinant mouse AChE): 3 fold | IC50 (recombinant mouse AChE; recombinant mouse AChE, mean ± SEM, read-out: mAChE IC50): 4.12 ± 0.23 nM | BBB permeation class ([2]; PAMPA-BBB prediction): CNS+ (High permeation, CNS+: Pe > 5.2) | Papp ([2]; pig, PAMPA): 8.4 ± 0.7 ×10⁻⁶ cm/s | % compound remaining non-metabolized, human microsomes ([3]; after 10 min at 37 °C): 82% | % compound remaining non-metabolized, human microsomes ([3]; after 20 min at 37 °C): 74% | microsomal CLint at 1 h ([3]; human, liver microsomes (pooled), pH 7.4, 37 °C): 8 µL/min/mg | half-life at 1 h ([3]; human, liver microsomes (pooled), pH 7.4, 37 °C, read-out: t1/2, human microsomes): 1.52 h | remaining at 1 h ([3]; human, liver microsomes (pooled), pH 7.4, after 1 h of incubation at 37 °C, read-out: % remaining compound, human microsomes): 55% | IC50 (recombinant human sEH): 4.6 nM

— paper PMC8958510 (Journal of Medicinal Chemistry, 2022)
